These results are taken from PubChem BioAssay AID330 (DTP/NCI, 2004).

The assay relates to P388 leukemia ip, CD2F1 mice, survival T/C. Nature of the assay: NCI In Vivo Anticancer Drug Screen. Data for tumor model P388 Leukemia (intraperitoneal) in CD2F1 (CDF1) mice. To be noted: endpoint: median survival time, higher = longer survival. The essentials:
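Mice carrying the transplanted tumor received test compound or vehicle. Survival was recorded in each group, and the value is the treated-group measurement divided by that of the vehicle-treated control group.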

The mark [1] stands for this setting: dose: 50.0 mg/kg/injection, schedule: Q01DX009 (ip), vehicle: Klucel (hydroxypropylcellulose) (HPC).
[2] abbreviates: dose: 100.0 mg/kg/injection, schedule: Q01DX009 (ip), vehicle: Klucel (hydroxypropylcellulose) (HPC).
[3] abbreviates: dose: 200.0 mg/kg/injection, schedule: Q01DX009 (ip), vehicle: Klucel (hydroxypropylcellulose) (HPC).
The mark [4] stands for this setting: dose: 60.0 mg/kg/injection, schedule: Q01DX005 (ip), vehicle: Klucel (hydroxypropylcellulose) (HPC).
[5] abbreviates: dose: 50.0 mg/kg/injection, schedule: Q01DX005 (ip), vehicle: saline with Tween-80.
[6] abbreviates: dose: 100.0 mg/kg/injection, schedule: Q01DX005 (ip), vehicle: saline with Tween-80.
The mark [7] stands for this setting: dose: 200.0 mg/kg/injection, schedule: Q01DX005 (ip), vehicle: saline with Tween-80.
Where [8] appears, read: dose: 120.0 mg/kg/injection, schedule: Q01DX005 (ip), vehicle: Klucel (hydroxypropylcellulose) (HPC).
Setting [9] is: dose: 240.0 mg/kg/injection, schedule: Q01DX005 (ip), vehicle: Klucel (hydroxypropylcellulose) (HPC).
Where [10] appears, read: dose: 50.0 mg/kg/injection, schedule: Q01DX009 (ip), vehicle: saline with Tween-80.
[11] abbreviates: dose: 100.0 mg/kg/injection, schedule: Q01DX009 (ip), vehicle: saline with Tween-80.
Setting [12] is: dose: 50.0 mg/kg/injection, schedule: Q01DX009 (ip), vehicle: saline.
Where [13] appears, read: dose: 100.0 mg/kg/injection, schedule: Q01DX009 (ip), vehicle: saline.
The mark [14] stands for this setting: dose: 200.0 mg/kg/injection, schedule: Q01DX009 (ip), vehicle: saline.
Setting [15] is: dose: 25.0 mg/kg/injection, schedule: Q04DX003 (ip), vehicle: saline.

Molecules are shown by their SMILES. Values joined by “and” are separate entries in the source; they are usually repeats but may differ in a detail not shown here. Equal entries are not always repeated. Toxic doses and inconclusive results are not listed.

`Cc1cc(C(C)(C)C)ccc1SP(Sc1ccc(C(C)(C)C)cc1C)Sc1ccc(C(C)(C)C)cc1C`: the T/C reads like this: under setting [1], 100 % of control; under setting [2], 92 % of control; under setting [3], 92 % of control.

In the case of `COc1ccc(C2C(C(=O)NCc3ccccc3)=C(C)NC(C)=C2C(=O)NCc2ccccc2)cc1OC`, the T/C is 100 % of control (dose: 15.0 mg/kg/injection, schedule: Q01DX005 (ip), vehicle: Klucel (hydroxypropylcellulose) (HPC)); 100 % of control (dose: 30.0 mg/kg/injection, schedule: Q01DX005 (ip), vehicle: Klucel (hydroxypropylcellulose) (HPC)); 100 % of control and 88 % of control under setting [4].

Consider `NC(=S)c1cccc(/C=N/O)n1`, for which the T/C by setting is: (dose: 50.0 mg/kg/injection, schedule: Q04DX003 (ip), vehicle: Klucel (hydroxypropylcellulose) (HPC)) 104 % of control; (dose: 100.0 mg/kg/injection, schedule: Q04DX003 (ip), vehicle: Klucel (hydroxypropylcellulose) (HPC)) 99 % of control; (dose: 200.0 mg/kg/injection, schedule: Q04DX003 (ip), vehicle: Klucel (hydroxypropylcellulose) (HPC)) 95 % of control.

With `O=C(NCCNC(=O)c1cccnc1)c1cccnc1`, the T/C was 118 % of control under setting [5], 108 % of control under setting [6] and 111 % of control under setting [7].

Regarding `O=C1C2=C(Nc3ccccc3N2)OC1c1ccccc1O` (centres undefined), the T/C is 98 % of control under setting [4], 91 % of control under setting [8] and 91 % of control under setting [9].

As to `N#CC(=N)C(C#N)=Nc1c(O)[nH]c2ccccc12`, the T/C is, setting by setting: (dose: 6.25 mg/kg/injection, schedule: Q01DX009 (ip), vehicle: DMSO) 100 % of control; (dose: 12.5 mg/kg/injection, schedule: Q01DX009 (ip), vehicle: DMSO) 94 % of control; (dose: 25.0 mg/kg/injection, schedule: Q01DX009 (ip), vehicle: DMSO) 100 % of control; (dose: 50.0 mg/kg/injection, schedule: Q01DX009 (ip), vehicle: DMSO) 108 % of control.

As for `O=C(NNC(=O)C(Cl)Cl)c1ccccn1`, the T/C is, setting by setting: under setting [1], 99 % of control; under setting [2], 101 % of control; under setting [3], 109 % of control.

Consider `Cc1ccc2nc(-c3ccc(CSC(=N)N)cc3)oc(=O)c2c1`, for which the T/C is 93 % of control under setting [10] and 89 % of control under setting [11].

Turning to `COC(=O)C(N)Cc1ccc(O)c(O)c1` (centres undefined), the T/C was 101 % of control under setting [12]; 99 % of control (dose: 50.0 mg/kg/injection, schedule: Q08HX028 (ip), vehicle: water); 108 % of control and 115 % of control under setting [13]; 102 % of control (dose: 100.0 mg/kg/injection, schedule: Q08HX028 (ip), vehicle: water); 111 % of control and 121 % of control under setting [14]; 120 % of control (dose: 200.0 mg/kg/injection, schedule: Q08HX028 (ip), vehicle: water). Moreover, for the setting “dose: 800.0 mg/kg/injection, schedule: Q01DX009 (ip), vehicle: saline”, the T/C is 156 % of control.

`NCCn1[nH]c(=O)c2cccnc2c1=O`: the T/C was 100 % of control (dose: 100.0 mg/kg/injection, schedule: Q04DX002 (ip), vehicle: saline with Tween-80); 95 % of control (dose: 200.0 mg/kg/injection, schedule: Q04DX002 (ip), vehicle: saline with Tween-80); 101 % of control (dose: 400.0 mg/kg/injection, schedule: Q04DX002 (ip), vehicle: saline with Tween-80).

`Cc1cc(C)n(/C(N)=N/[N+](=O)[O-])n1`: the T/C is 96 % of control under setting [12], 105 % of control under setting [13] and 86 % of control under setting [14].

In the case of `CCC1(N(C)C)C(=O)NC(=O)N(C2CCCCC2)C1=O` (centres undefined), the T/C under setting [4] is 98 % of control, the T/C under setting [8] was 96 % of control and the T/C under setting [9] was 91 % of control.

As for `CCCCN1C(=O)CC(=O)N(c2ccccc2)C1=O`, the T/C is 99 % of control under setting [12], 103 % of control under setting [13] and 93 % of control under setting [14].

Regarding `CN(CCC(=O)c1ccc(Cl)cc1)CCC(=O)c1ccc(Cl)cc1`, the T/C by setting is: (dose: 50.0 mg/kg/injection, schedule: Q01DX005 (ip), vehicle: Klucel (hydroxypropylcellulose) (HPC)) 117 % of control; (dose: 100.0 mg/kg/injection, schedule: Q01DX005 (ip), vehicle: Klucel (hydroxypropylcellulose) (HPC)) 108 % of control; (dose: 200.0 mg/kg/injection, schedule: Q01DX005 (ip), vehicle: Klucel (hydroxypropylcellulose) (HPC)) 104 % of control.

Take `COc1cc2c(cc1OC)C1=C(CC2)C2CCCN2CC1` (centres undefined): the T/C runs as follows: (dose: 12.5 mg/kg/injection, schedule: Q04DX003 (ip), vehicle: saline) 104 % of control; under setting [15], 100 % of control.

As for `CC(=O)N/C(=C\c1ccc([N+](=O)[O-])cc1)c1nc2ccccc2s1`, the T/C (dose: 60.0 mg/kg/injection, schedule: Q01DX005 (ip), vehicle: saline with Tween-80) is 110 % of control; the T/C (dose: 120.0 mg/kg/injection, schedule: Q01DX005 (ip), vehicle: saline with Tween-80) is 107 % of control; the T/C (dose: 240.0 mg/kg/injection, schedule: Q01DX005 (ip), vehicle: saline with Tween-80) is 113 % of control.

As for `O=C1NC(=O)C2(CC3CCCC(C2)N3)N1` (centres undefined), the T/C (dose: 100.0 mg/kg/injection, schedule: Q04DX003 (ip), vehicle: water) is 101 % of control; the T/C (dose: 200.0 mg/kg/injection, schedule: Q04DX003 (ip), vehicle: water) is 99 % of control; the T/C (dose: 400.0 mg/kg/injection, schedule: Q04DX003 (ip), vehicle: water) is 103 % of control.

Take `C=Cc1cc(=O)oc2cc(OC)ccc12`: the T/C by setting is: (dose: 12.5 mg/kg/injection, schedule: Q01DX005 (ip), vehicle: saline with Tween-80) 106 % of control and 94 % of control; (dose: 25.0 mg/kg/injection, schedule: Q01DX005 (ip), vehicle: saline with Tween-80) 108 % of control and 95 % of control; under setting [5], 105 % of control and 115 % of control and 121 % of control; under setting [6], 105 % of control.

Consider `CCN(CC)CCNC(=O)c1ccc2c(c1O)C(=O)c1ccccc1C2=O`, for which the T/C runs as follows: under setting [5], 106 % of control; under setting [6], 106 % of control.

In the case of `COc1ccc2c(c1)CCC1C2CCC2(C)C1CCC2(O)CCN=[N+]=[N-]` (centres undefined), the T/C reads like this: under setting [10], 104 % of control; under setting [11], 101 % of control; (dose: 200.0 mg/kg/injection, schedule: Q01DX009 (ip), vehicle: saline with Tween-80) 101 % of control.

Take `COC(=O)/C=N/NS(=O)(=O)c1cccc(N)c1`: the T/C by setting is: (dose: 12.5 mg/kg/injection, schedule: Q01DX009 (ip), vehicle: water) 99 % of control; (dose: 25.0 mg/kg/injection, schedule: Q01DX009 (ip), vehicle: water) 107 % of control; (dose: 50.0 mg/kg/injection, schedule: Q01DX009 (ip), vehicle: water) 92 % of control; (dose: 100.0 mg/kg/injection, schedule: Q01DX009 (ip), vehicle: water) 99 % of control and 102 % of control; (dose: 200.0 mg/kg/injection, schedule: Q01DX009 (ip), vehicle: water) 98 % of control.

Regarding `Cn1c(=S)[nH]c2c(c1=O)CCCN2`, the T/C by setting is: (dose: 100.0 mg/kg/injection, schedule: Q01DX001 (ip), vehicle: Klucel (hydroxypropylcellulose) (HPC)) 101 % of control; (dose: 200.0 mg/kg/injection, schedule: Q01DX001 (ip), vehicle: Klucel (hydroxypropylcellulose) (HPC)) 99 % of control; (dose: 400.0 mg/kg/injection, schedule: Q01DX001 (ip), vehicle: Klucel (hydroxypropylcellulose) (HPC)) 95 % of control.

For the compound `C=[CH][Sn]([Cl])([Cl])[CH]=C.COc1ccc(P(=O)(c2ccc(OC)cc2)c2ccc(OC)cc2)cc1`, the T/C is, setting by setting: under setting [15], 100 % of control and 113 % of control; (dose: 50.0 mg/kg/injection, schedule: Q04DX003 (ip), vehicle: saline) 100 % of control and 111 % of control; (dose: 100.0 mg/kg/injection, schedule: Q04DX003 (ip), vehicle: saline) 100 % of control and 115 % of control and 120 % of control; (dose: 200.0 mg/kg/injection, schedule: Q04DX003 (ip), vehicle: saline) 100 % of control and 111 % of control; (dose: 400.0 mg/kg/injection, schedule: Q04DX003 (ip), vehicle: saline) 117 % of control.

As to `CN(c1ccccc1)c1c(Cl)c(=O)oc2c1ccc1nc(-c3ccccc3)sc12`, the T/C is 86 % of control under setting [5], 90 % of control under setting [6] and 86 % of control under setting [7].
